This is an account of results in US8735425B2, “Tetrahydroisoquinoline derivative” (Daiichi Sankyo Company, Limited, priority 2008, dated 2014).

One assay has as its system Male C57BL/6N mice. Put plainly: Triglyceride absorption suppression after fat loading (in vivo DGAT1 inhibitory effect). The conditions noted are these: Mus musculus, po; dose of 10 mg/kg or lower, orally administered, mice fasted overnight, plasma triglyceride after fat loading; read-out: Triglyceride absorption suppressive activity. On the procedure:
The DGAT1 enzyme is important for the digestion and absorption of triglycerides, and the inhibition of DGAT1 in the small intestine suppresses the absorption of triglycerides. The in vivo activity of its DGAT1 inhibitory effect was evaluated with the suppressed absorption of triglycerides after fat loading as an index. Male C57BL/6N mice (7-12 weeks old, body weight: 17-25 g, Charles River Laboratories Japan Inc.) fasted overnight were assigned to Vehicle group 1, Vehicle group 2, and each test compound group, to which a vehicle (0.5% methylcellulose) or each test compound (1 to 10 mg/kg) suspended in vehicle was orally administered (5 mL/kg). After a given time, a lipoprotein lipase inhibitor (Pluronic-F127: Sigma-Aldrich Corp., 1 g/kg, 20% by weight dissolved in saline) was intraperitoneally administered (5 mL/kg) to each group. Immediately thereafter, distilled water for the Vehicle group 1 or a 20% fat-containing emulation (Intralipid 20%: TERUMO CORP., Japan) for the Vehicle group 2 and the compound groups were orally administered thereto (0.2 mL/mouse). After a given time of 1 to 4 hours after administration, blood was collected from the tail vein or the right ventricle, and plasma was immediately separated and collected. Then, the triglyceride concentration in plasma was measured using a commercially available kit (Triglyceride E-Test Wako: Wako Pure Chemical Industries, Ltd.). In this method, the administration of the lipoprotein lipase inhibitor suppresses the hydrolysis of triglycerides in the blood such that the triglycerides are accumulated in the blood. These triglycerides are derived from two origins: exogenous triglycerides absorbed in the gastrointestinal tract and endogenous triglycerides released from the liver. The triglyceride absorption suppressive activity of each test compound was calculated based on the equation shown below by removing the influence of the endogenous triglycerides. In this context, each test compound was separately confirmed to have no influence on the concentration of the endogenous triglycerides.
Triglyceride absorption suppressive activity (%)=100−[(Triglyceride concentration of each test compound group)−(Triglyceride concentration of Vehicle group 1)]/[(Triglyceride concentration of Vehicle group 2)−(Triglyceride concentration of Vehicle group 1)]×100

The target in another assay is T1, DGAT1 enzyme (Homo sapiens, UniProt O75907).
T1 construct: made in house
T1 sequence (O75907 1-488): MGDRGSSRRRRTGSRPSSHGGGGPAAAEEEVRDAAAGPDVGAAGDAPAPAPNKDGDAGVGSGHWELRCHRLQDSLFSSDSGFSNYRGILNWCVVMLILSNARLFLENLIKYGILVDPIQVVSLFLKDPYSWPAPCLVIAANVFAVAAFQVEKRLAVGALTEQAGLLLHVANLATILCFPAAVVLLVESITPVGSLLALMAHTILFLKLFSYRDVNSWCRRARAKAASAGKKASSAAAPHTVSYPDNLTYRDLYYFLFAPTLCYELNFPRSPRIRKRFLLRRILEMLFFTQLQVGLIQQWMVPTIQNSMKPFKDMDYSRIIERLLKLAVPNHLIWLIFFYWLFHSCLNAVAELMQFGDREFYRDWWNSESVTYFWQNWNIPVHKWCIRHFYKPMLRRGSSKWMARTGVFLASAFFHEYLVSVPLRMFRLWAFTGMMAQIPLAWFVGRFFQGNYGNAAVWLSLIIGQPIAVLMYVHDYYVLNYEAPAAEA
Put plainly: DGAT1 inhibitory activity test. The format is biochemical. The conditions noted are these: test compound concentration of 0.05 μg/ml; read-out: Inhibitory Rate. On the procedure: DGAT1 enzyme was prepared and stored according to the method described in US2007/0249620.
(2) DGAT1 Inhibitory Activity Test
A reaction solution having the following composition was incubated at room temperature (23° C.) for 30 minutes: 175 mM Tris-HCl (pH 8.0), 8 mM MgCl2, 1 mg/ml BSA, 0.3 mM 1,2-dioleoyl-sn-glycerol (10-fold concentration of EtOH solution, 10% added), 10 μM [^14C]-oleoyl-CoA (approximately 50 mCi/mmol), 0.5% Triton X-100, the DGAT1 enzyme (10 μg) obtained in Test Example 1(1), and a test compound or vehicle (DMSO/MeOH, 7:3 solution, 5% added), […] in total. A reaction stop solution ([…] consisting of isopropanol/1-heptane/water (80:20:2, v/v/v) was added to the reaction solution and stirred. Subsequently, water (30 μl) and 1-heptane (100 μl) were added thereto and stirred. The 1-heptane layer (50 μl) was spotted onto a TLC plate and developed with a developing solvent consisting of 1-hexane/diethyl ether/acetic acid (85:15:1, v/v/v). The radioactivity of the triglyceride fraction was quantified using BAS2000 Bio Image Analyzer (FUJIFILM) and compared with the control. The inhibitory activity of the test compound was calculated according to the formula shown below. In this context, the radioactivity at no reaction (0 minute incubation) was used as background. Inhibitory Rate=100−[(Radioactivity of sample supplemented with test compound)−(Background)]/[(Radioactivity of control)−(Background)]×100

As for `COc1ccccc1NC(=O)Nc1ccc2c(c1)CCN(C(=O)O[C@H]1CC[C@H](CC(=O)O)CC1)C2` [Example 21, trans-6-[3-(2-methoxy-phenyl)-ureido]-3,4-dihydro-1H-isoquinoline-2-carboxylic acid 4-carboxymethyl-cyclohexyl ester], the inhibition in vivo at up to 10 mg/kg with Male C57BL/6N mice is no less than 60%. At DGAT1 enzyme, the inhibition at 0.05 µg/mL is no less than 50%.
With `COc1ccc(F)cc1NC(=O)Nc1ccc2c(c1)CCN(C(=O)O[C@H]1CC[C@H](CC(=O)O)CC1)C2` [Example 22, trans-6-[3-(5-fluoro-2-methoxy-phenyl)-ureido]-3,4-dihydro-1H-isoquinoline-2-carboxylic acid 4-carboxymethyl-cyclohexyl ester], the inhibition in vivo at up to 10 mg/kg in the assay on Male C57BL/6N mice is no less than 60%. Further, the inhibition at 0.05 µg/mL at DGAT1 enzyme was no less than 50%.
`COc1ccc(C)cc1NC(=O)Nc1ccc2c(c1)CCN(C(=O)O[C@H]1CC[C@H](CC(=O)O)CC1)C2` [Example 23, trans-6-[3-(2-methoxy-5-methyl-phenyl)-ureido]-3,4-dihydro-1H-isoquinoline-2-carboxylic acid 4-carboxymethyl-cyclohexyl ester]: the inhibition in vivo at up to 10 mg/kg in the assay with Male C57BL/6N mice is no less than 60%. The inhibition at 0.05 µg/mL at DGAT1 enzyme is no less than 50%.
Taken in the same sequence, the figures for `COc1ncccc1NC(=O)Nc1ccc2c(c1)CCN(C(=O)O[C@H]1CC[C@H](CC(=O)O)CC1)C2` [Example 24, trans-6-[3-(2-methoxy-pyridin-3-yl)-ureido]-3,4-dihydro-1H-isoquinoline-2-carboxylic acid 4-carboxymethyl-cyclohexyl ester] were no less than 60% and no less than 50%.
For the compound `O=C(O)C[C@H]1CC[C@H](OC(=O)N2CCc3cc(Nc4nc5ccccc5o4)ccc3C2)CC1` [Example 25, trans-6-(benzoxazol-2-ylamino)-3,4-dihydro-1H-isoquinoline-2-carboxylic acid 4-carboxymethyl-cyclohexyl ester], in the assay with Male C57BL/6N mice, the inhibition in vivo at up to 10 mg/kg is no less than 60%. The inhibition at 0.05 µg/mL at DGAT1 enzyme was no less than 50%.
`CCOc1ccccc1NC(=O)Nc1ccc2c(c1)CCN(C(=O)O[C@H]1CC[C@H](CC(=O)O)CC1)C2` [Example 26, trans-6-[3-(2-ethoxy-phenyl)-ureido]-3,4-dihydro-1H-isoquinoline-2-carboxylic acid 4-carboxymethyl-cyclohexyl ester]: in the assay with Male C57BL/6N mice, the inhibition in vivo at up to 10 mg/kg is no less than 60%. Besides, the inhibition at 0.05 µg/mL on DGAT1 enzyme is no less than 50%.
Taken in the same sequence, the figures for `CCOc1ccc(F)cc1NC(=O)Nc1ccc2c(c1)CCN(C(=O)O[C@H]1CC[C@H](CC(=O)O)CC1)C2` [Example 27, trans-6-[3-(2-ethoxy-5-fluoro-phenyl)-ureido]-3,4-dihydro-1H-isoquinoline-2-carboxylic acid 4-carboxymethyl-cyclohexyl ester] were no less than 60% and no less than 50%.
Taken in the same sequence, the figures for `CC(C)c1ccccc1NC(=O)Nc1ccc2c(c1)CCN(C(=O)O[C@H]1CC[C@H](CC(=O)O)CC1)C2` [Example 28, trans-6-[3-(2-isopropyl-phenyl)-ureido]-3,4-dihydro-1H-isoquinoline-2-carboxylic acid 4-carboxymethyl-cyclohexyl ester] were no less than 60% and no less than 50%.
Taken in the same sequence, the figures for `CC(C)c1cccc(NC(=O)Nc2ccc3c(c2)CCN(C(=O)O[C@H]2CC[C@H](CC(=O)O)CC2)C3)c1` [Example 29, trans-6-[3-(3-isopropyl-phenyl)-ureido]-3,4-dihydro-1H-isoquinoline-2-carboxylic acid 4-carboxymethyl-cyclohexyl ester] were no less than 60% and no less than 50%.
Consider `CC(C)Oc1cccc(NC(=O)Nc2ccc3c(c2)CCN(C(=O)O[C@H]2CC[C@H](CC(=O)O)CC2)C3)c1` [Example 30, trans-6-[3-(3-isopropoxy-phenyl)-ureido]-3,4-dihydro-1H-isoquinoline-2-carboxylic acid 4-carboxymethyl-cyclohexyl ester], for which the inhibition in vivo at up to 10 mg/kg with Male C57BL/6N mice was no less than 60%. Besides, the inhibition at 0.05 µg/mL at DGAT1 enzyme was no less than 50%.
For `O=C(O)C[C@H]1CC[C@H](OC(=O)N2CCc3cc(NC(=O)Nc4cc(F)c(F)cc4F)ccc3C2)CC1` [Example 31, trans-6-[3-(2,4,5-trifluoro-phenyl)-ureido]-3,4-dihydro-1H-isoquinoline-2-carboxylic acid 4-carboxymethyl-cyclohexyl ester] the same measures were no less than 60% and no less than 50%.
Take `O=C(O)C[C@H]1CC[C@H](OC(=O)N2CCc3cc(NC(=O)Nc4cc(F)c(F)c(F)c4)ccc3C2)CC1` [Example 32, trans-6-[3-(3,4,5-trifluoro-phenyl)-ureido]-3,4-dihydro-1H-isoquinoline-2-carboxylic acid 4-carboxymethyl-cyclohexyl ester]: in the assay with Male C57BL/6N mice, the inhibition in vivo at up to 10 mg/kg was no less than 60%. The inhibition at 0.05 µg/mL at DGAT1 enzyme is no less than 50%.
As to `O=C(Nc1ccc2c(c1)CCN(C(=O)O[C@H]1CC[C@H](Cc3noc(=O)[nH]3)CC1)C2)Nc1ccccc1F` [Example 41, trans-6-[3-(2-fluoro-phenyl)-ureido]-3,4-dihydro-1H-isoquinoline-2-carboxylic acid 4-(5-oxo-4,5-dihydro-[1,2,4]oxadiazol-3-ylmethyl)-cyclohexyl ester], in the assay on Male C57BL/6N mice, the inhibition in vivo at up to 10 mg/kg was no less than 60%. Besides, the inhibition at 0.05 µg/mL at DGAT1 enzyme is no less than 50%.
Taken in the same sequence, the figures for `O=C(Nc1ccc2c(c1)CCN(C(=O)O[C@H]1CC[C@H](Cc3cc(O)no3)CC1)C2)Nc1ccccc1F` [Example 43, trans-6-[3-(2-fluoro-phenyl)-ureido]-3,4-dihydro-1H-isoquinoline-2-carboxylic acid 4-(3-hydroxy-isoxazol-5-ylmethyl)-cyclohexyl ester] were no less than 60% and no less than 50%.
Taken in the same sequence, the figures for `O=C(Nc1ccc2c(c1)CCN(C(=O)O[C@H]1CC[C@H](Cc3nn[nH]n3)CC1)C2)Nc1ccccc1F` [Example 44, trans-6-[3-(2-fluoro-phenyl)-ureido]-3,4-dihydro-1H-isoquinoline-2-carboxylic acid 4-(2H-tetrazol-5-ylmethyl)-cyclohexyl ester] were no less than 60% and no less than 50%.
For `O=C(Nc1ccc2c(c1)CCN(C(=O)O[C@H]1CC[C@H](CC(=O)OC[C@@H](O)CO)CC1)C2)Nc1ccccc1F` [Example 45, trans-6-[3-(2-fluoro-phenyl)-ureido]-3,4-dihydro-1H-isoquinoline-2-carboxylic acid 4-((S)-2,3-dihydroxy-propoxycarbonylmethyl)-cyclohexyl ester], the inhibition in vivo at up to 10 mg/kg in the assay on Male C57BL/6N mice is no less than 60%. Besides, the inhibition at 0.05 µg/mL on DGAT1 enzyme was no less than 50%.
Turning to `O=C(O)C[C@H]1CC[C@H](OC(=O)N2CCc3cc(Nc4nc5ccc(Cl)cc5o4)ccc3C2)CC1` [Example 47, trans-6-(6-chloro-benzoxazol-2-ylamino)-3,4-dihydro-1H-isoquinoline-2-carboxylic acid 4-carboxymethyl-cyclohexyl ester], the inhibition in vivo at up to 10 mg/kg in the assay with Male C57BL/6N mice is no less than 60%. Besides, the inhibition at 0.05 µg/mL on DGAT1 enzyme is no less than 50%.
